Reference: publication PMC7394005, “Assessing the Selectivity of FXR, LXRs, CAR, and RORγ Pharmaceutical Ligands With Reporter Cell Lines” (Frontiers in Pharmacology, 2020)
Read-outs that look alike come from different tables or passages of the source. Blank lines part the entries; values can stand above or below the molecule they belong to.

Key:
Format in all cases: cell-based
human FXR [1] = target: T1, human FXR (Homo sapiens, UniProt Q96RI1); assay: HG5LN GAL4-FXR reporter cell line, antagonist mode in presence of GW4064; details: for FXR (GW4064 100 nM) % min act: in presence of GW4064 100 nM (80% of maximal activity), at 10^-5 M (10^-6 M *, 3 10^-6 M **)
T1 construct: FXR (R193-Q486); expressed in transfected cells; host or cells: HG5LN (HeLa cells carrying the (GAL4RE)5-βGlob-Luc-SVNeo reporter)
T1 sequence (Q96RI1 193-486): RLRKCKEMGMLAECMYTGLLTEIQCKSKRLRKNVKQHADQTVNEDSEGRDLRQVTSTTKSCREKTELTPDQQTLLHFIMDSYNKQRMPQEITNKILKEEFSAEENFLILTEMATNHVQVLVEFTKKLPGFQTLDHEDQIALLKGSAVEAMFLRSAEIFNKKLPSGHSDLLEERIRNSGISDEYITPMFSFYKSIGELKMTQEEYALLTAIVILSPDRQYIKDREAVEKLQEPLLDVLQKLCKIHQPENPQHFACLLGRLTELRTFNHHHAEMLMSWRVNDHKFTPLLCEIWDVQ
Excerpt: (§1) To construct GAL4-NR chimeras, individual LBDs of human FXR (R193-Q486), LXRα (A187-E447), LXRβ (G199-E461), CAR (M76-S348), and RORγ (S97-K518) were amplified by PCR with primers containing XhoI and SacI restriction sites (FXR), XhoI and BamHI (LXRs, CAR, RORγ) and inserted in pSG5-GAL4(DBD)-puromycin plasmid. To construct GAL4-CAR (+ APYLT) (M76-S353), the five amino acids APYLT were inserted by overlap extension PCR between amino acids P270 and D271 of CAR.
(§2) To characterize the specificity of chemicals for human FXR, LXRα, LXRβ, CAR and RORγ, we established in a similar manner HG5LN FXR, LXRα, LXRβ, CAR WT, CAR (APYLT) and RORγ reporter cell lines. […] These cells were stably transfected by pSG5-GAL4 (DBD)-NRs (LBD)-puromycin plasmid and selected in presence of 0.5 µg/ml puromycin. […] From each HG5LN NR cells, 5 to 10 clones were chosen for their ligand inducibility of luciferase expression. […] The most inducible clones were expanded and rechecked for inducibility and aliquots were frozen at different passages. One clone per receptor was maintained in culture and used for ligand screening. HG5LN cells were cultured in Dulbecco’s modified Eagle’s medium (DMEM): Nutrient Mixture F-12 (DMEM/F-12) containing phenol red and 1 g/l glucose and supplemented with 5% fetal bovine serum, 100 units/ml of penicillin, 100 µg/ml of streptomycin and 1 mg/ml geneticin, in 5% CO2 humidified atmosphere at 37°C. Stably transfected cell lines derived from HG5LN cells were cultured in the same culture medium supplemented with 0.5 µg/ml puromycin.
(§3) Individual reporter cell lines were seeded at a density of 40,000 cells per well in 96-well white opaque tissue culture plates (Greiner CellStar) in Dulbecco’s Modified Eagle Medium: Nutrient Mixture F-12 (DMEM/F-12) without phenol red and 1 g/l glucose and supplemented with 5% stripped fetal bovine serum, 100 units/ml of penicillin, 100 µg/ml of streptomycin (test medium). Chemicals to be tested were added 24h later, and cells were incubated at 37°C for 16h. Experiments were performed in quadruplicates. At the end of the incubation period, culture medium was replaced with test medium containing 0.3 mM luciferin solution. Luciferase activity was measured for 2s in intact living cells after 10 min stabilization using a Micro Beta Wallac luminometer (PerkinElmer). EC50 values were calculated using GraphPad Prism (GraphPad Software Inc).
(§4) Chemicals tested for agonism on FXR, LXRs, CAR (+ APYLT), PXR, and antagonism on CAR and RORγ were tested alone, without addition of any other ligand.
(§5) In the transactivation assay, each compound was tested at various concentrations in three independent experiments at least. For each experiment, tests were performed in quadruplicates for each concentration, and data are expressed by means values with standard deviations. Individual agonist dose–response curves, in the absence and presence of antagonist, were fitted using the sigmoid dose-response function of a graphics and statistics software program (GraphPad Prism, version 5.0). EC50 (effective concentration for half-maximal luciferase activity) and IC50 (half-maximal inhibitory concentration) values were calculated from equations used to fit the data in this graphic software. Transactivation data are presented as EC50 and IC50 values for each compound tested. To analyze significances, we compared individual compound treatments with controls using one-way analysis of variance (ANOVA) with the help of GraphPad Prism software.

human LXRα = target: T2, human LXRα (Homo sapiens, UniProt Q13133); assay: HG5LN GAL4-LXRα reporter cell line, antagonist mode in presence of T0901317; details: for LXRα (T0901317 20 nM) % min act: in presence of T0901317 20 nM (80% of maximal activity), at 10^-5 M (10^-6 M *, 3 10^-6 M **)
T2 construct: LXRα (A187-E447); expressed in transfected cells; host or cells: HG5LN (HeLa cells carrying the (GAL4RE)5-βGlob-Luc-SVNeo reporter)
T2 sequence (Q13133 187-447): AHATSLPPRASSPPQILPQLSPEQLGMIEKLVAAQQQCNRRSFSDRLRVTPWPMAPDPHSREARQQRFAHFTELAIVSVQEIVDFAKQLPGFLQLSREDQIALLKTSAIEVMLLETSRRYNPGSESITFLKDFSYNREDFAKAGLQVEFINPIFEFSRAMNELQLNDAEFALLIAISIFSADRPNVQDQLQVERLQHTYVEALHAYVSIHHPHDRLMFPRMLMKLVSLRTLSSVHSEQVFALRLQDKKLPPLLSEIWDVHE
Excerpt: as §1, §2, §3, §4, §5

human FXR [2] = target: T1, human FXR; assay: HG5LN GAL4-FXR reporter cell line, agonist mode (luciferase transactivation); details: NE = No effect; for EC50: HG5LN GAL4-FXR cells, tested alone
Excerpt: as §1, §2, §3, §4, §5

human LXRβ = target: T3, human LXRβ (Homo sapiens, UniProt P55055); assay: HG5LN GAL4-LXRβ reporter cell line, agonist mode; details: for LXRβ % max act: maximal luciferase activity at 10^-5 M (10^-6 M for * and 3 10^-6 M for ** compounds), 100% = 1 µM T0901317, DMSO 9 ± 2
T3 construct: LXRβ (G199-E461); expressed in transfected cells; host or cells: HG5LN (HeLa cells carrying the (GAL4RE)5-βGlob-Luc-SVNeo reporter)
T3 sequence (P55055 198-460 limits assumed): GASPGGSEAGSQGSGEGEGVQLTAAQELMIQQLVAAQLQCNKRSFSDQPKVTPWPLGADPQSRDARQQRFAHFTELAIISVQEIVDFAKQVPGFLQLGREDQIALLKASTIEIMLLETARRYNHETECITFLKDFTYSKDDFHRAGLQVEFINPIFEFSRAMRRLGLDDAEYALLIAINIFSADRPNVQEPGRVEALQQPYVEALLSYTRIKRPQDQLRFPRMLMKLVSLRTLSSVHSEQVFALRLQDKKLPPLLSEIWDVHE
Excerpt: as §1, §2, §3, §4, §5

[3] = read-out: FXR (GW4064 100 nM) IC50, in presence of GW4064 100 nM, NE = No effect
[4] = HG5LN GAL4-LXRβ cells, tested alone, NE = No effect, read-out: LXRβ EC50
[5] = read-out: LXRα (T0901317 20 nM) IC50, in presence of T0901317 20 nM, NE = No effect

Molecule: CCOC(=O)c1ccc(CN(Cc2ccc(-c3cccc(S(C)(=O)=O)c3)cc2)S(=O)(=O)c2c(C)cc(C)cc2C)o1 [SR9238]
IC50 (human FXR [1]; [3]): > 10 µM | IC50 (human LXRα): 0.026 ± 0.005 µM | LXRα (T0901317 20 nM) % min act (human LXRα; NE = No effect): 2% | EC50 (human FXR [2]): > 10 µM

Molecule: CCOC(=O)Nc1ccc2c(c1)N(C(=O)CN(CC)CC)c1ccccc1CC2 [CINPA1]
IC50 (human FXR [1]; [3]): > 10 µM | EC50 (human LXRβ; [4]): > 10 µM | IC50 (human LXRα; [5]): > 10 µM | EC50 (human FXR [2]): > 10 µM

Molecule: O=C(Nc1ccc(C(O)(C(F)(F)F)C(F)(F)F)cc1)c1ccccc1Cl [SR0987]
IC50 (human FXR [1]; [3]): > 10 µM | EC50 (human LXRβ; [4]): > 10 µM | IC50 (human LXRα; [5]): > 10 µM | EC50 (human FXR [2]): > 10 µM

Molecule: SPA70
IC50 (human FXR [1]; [3]): > 10 µM | EC50 (human LXRβ; [4]): > 10 µM | IC50 (human LXRα; [5]): > 10 µM | EC50 (human FXR [2]): > 10 µM

Molecule: Clc1ccccc1C(c1ccccc1)(c1ccccc1)n1ccnc1 [Clotrimazole, clotrimazole]
EC50 (human LXRβ; [4]): > 10 µM | IC50 (human LXRα; [5]): > 10 µM

Molecule: Fc1ccc(-c2c3cccc(C(F)(F)F)c3nn2Cc2ccc(F)cc2Cl)cc1 [WAY252623]
IC50 (human FXR [1]; [3]): > 10 µM | EC50 (human LXRβ): 0.321 ± 0.071 µM | LXRβ % max act (human LXRβ; NE = No effect): 72% | EC50 (human FXR [2]): > 10 µM

Molecule: CC(C)(C)c1nc(-c2cccc(NS(=O)(=O)c3c(F)cccc3F)c2F)c(-c2ccnc(N)n2)s1 [Dabrafenib]
IC50 (human FXR [1]; [3]): > 10 µM | EC50 (human LXRβ; [4]): > 10 µM | IC50 (human LXRα; [5]): > 10 µM | EC50 (human FXR [2]): > 10 µM

Molecule: Cc1cc(C)c(S(=O)(=O)N(Cc2ccc(-c3cccc(S(C)(=O)=O)c3)cc2)Cc2ccc(C(F)(F)F)o2)c(C)c1 [GSK2033]
IC50 (human FXR [1]; [3]): > 10 µM | LXRα (T0901317 20 nM) % min act (human LXRα; NE = No effect): 2% | EC50 (human FXR [2]): > 10 µM

Molecule: O=C(Nc1ccc(C(O)(C(F)(F)F)C(F)(F)F)cc1)c1ccc(C(F)(F)F)cc1 [SR1078]
IC50 (human FXR [1]; [3]): > 10 µM | EC50 (human LXRβ; [4]): > 10 µM | IC50 (human LXRα; [5]): > 10 µM | EC50 (human FXR [2]): > 10 µM

Molecule: COC(=O)/C=C/c1cccc(N(Cc2ccc(-c3ccc(N(C)C)cc3)cc2)C(=O)C2CCCCC2)c1 [Feraxamine]
FXR (GW4064 100 nM) % min act (human FXR [1]; NE = No effect): 33% | IC50 (human FXR [1]; [3]): 0.687 ± 0.103 µM | EC50 (human LXRβ; [4]): > 10 µM | IC50 (human LXRα; [5]): > 10 µM | EC50 (human FXR [2]): 0.612 ± 0.188 µM | FXR % max act (human FXR [2]; maximal luciferase activity at 10^-5 M (10^-6 M for * and 3 10^-6 M for ** compounds), 100% = 1 µM GW4064, DMSO 6 ± 1): 33%

Molecule: Clc1ccc(-c2nc3sccn3c2/C=N/OCc2ccc(Cl)c(Cl)c2)cc1 [CITCO]
IC50 (human FXR [1]; [3]): > 10 µM | EC50 (human LXRβ; [4]): > 10 µM | IC50 (human LXRα; [5]): > 10 µM | EC50 (human FXR [2]): > 10 µM

The next lines start with the values.

EC50 (human LXRβ; [4]): > 10 µM | IC50 (human LXRα; [5]): > 10 µM
Molecule: CC(C)c1onc(-c2c(Cl)cccc2Cl)c1COc1ccc(/C=C/c2cccc(C(=O)O)c2)c(Cl)c1 [GW4064]

FXR (GW4064 100 nM) % min act (human FXR [1]; NE = No effect): 14% | IC50 (human FXR [1]; [3]): 0.148 ± 0.068 µM | EC50 (human LXRβ; [4]): > 10 µM | IC50 (human LXRα; [5]): > 10 µM
Molecule: COc1cccc(Cn2cc(C(=O)Nc3ccc(C)c(S(=O)(=O)N4CCOCC4)c3)c(-c3ccc(C)cc3)n2)c1 [DY268]

IC50 (human FXR [1]): 5.8 ± 0.313 µM | FXR (GW4064 100 nM) % min act (human FXR [1]; NE = No effect): 25% | EC50 (human LXRβ; [4]): 0.015 ± 0.006 µM | LXRβ specificity (fold, over LXRα) (human LXRβ; from EC50 values on LXRα and LXRβ): 12 fold | LXRβ % max act (human LXRβ; NE = No effect): 100%
Molecule: O=C(O)Cc1cccc(OCCCN(Cc2cccc(C(F)(F)F)c2Cl)CC(c2ccccc2)c2ccccc2)c1 [GW3965]

IC50 (human FXR [1]; [3]): > 10 µM | IC50 (human LXRα): 0.56 ± 0.099 µM | LXRα (T0901317 20 nM) % min act (human LXRα; NE = No effect): 2% | EC50 (human FXR [2]): > 10 µM
Molecule: Cc1cc(C)c(S(=O)(=O)N(CCc2cccc(Br)c2)Cc2ccc(-c3cccc(S(C)(=O)=O)c3)cc2)c(C)c1 [SR9243]

IC50 (human FXR [1]; [3]): > 10 µM | EC50 (human LXRβ; [4]): > 10 µM | IC50 (human LXRα; [5]): > 10 µM | EC50 (human FXR [2]): > 10 µM
Molecule: CC(=O)Nc1nc(C)c(S(=O)(=O)Nc2ccc(C(O)(C(F)(F)F)C(F)(F)F)cc2)s1 [SR1001]

IC50 (human FXR [1]; [3]): > 10 µM | EC50 (human LXRβ; [4]): > 10 µM | IC50 (human LXRα; [5]): > 10 µM | EC50 (human FXR [2]): > 10 µM
Molecule: Cc1oc2ccccc2c1CNC(=O)NCc1cccs1 [S07662]

IC50 (human FXR [1]; [3]): > 10 µM | EC50 (human LXRβ; [4]): > 10 µM | IC50 (human LXRα; [5]): > 10 µM | EC50 (human FXR [2]): > 10 µM
Molecule: CCOP(=O)(OCC)C(=Cc1cc(C(C)(C)C)c(O)c(C(C)(C)C)c1)P(=O)(OCC)OCC [SR12813]
